Measurements reported in US20260355180A1, “COMPOSITIONS AND METHODS FOR SPLICEOSOME-TARGETED THERAPIES” (Institute for Cancer Research d/b/a The Research Institute …, priority 2022, published 2026).
Entries after “also recorded” stand apart in the source; their conditions may differ.

Legend:
[1] = system: ZBP1-KO RPPM631 cells; assay: Viability of ZBP1-KO RPPM631 cells; format: cell-based, mouse; conditions: PlaB
Description: (§1) Next, we prepared ZBP1-KO RPPM631 cells to determine whether the necroptosis was ZBP-1 dependent.

[2] = system: MEF ΔZα cells; assay: pMLKL western blot / necroptosis, MEF ΔZα; format: cell-based, mouse; conditions: 2.5 nM PlaB, 18 hours
Procedure: (§2) FIG. 5A-5E: SF3B1 perturbation upregulates A-RNA and Z-nucleic acids in MEFs. (FIG. 5A) 5 nM of PlaB induces A-RNA and Z-Nucleic acids in ΔZBP1 MEF cells. (FIG. 5B) Quantification of A-RNA and Z-Nucleic acids. […] Plots of signal intensity are mean±SEM, two-tailed unpaired Student's t test *p<0.05, ***p<0.001, ****p<0.0001. 18 hours of PlaB treatment for IF, WB and rescue experiments. IF: 5 nM PlaB, WB and rescue experiments: 2.5 nM PlaB.
(§3) Since induction of Z-nAs can result in ZBP1-dependent necroptosis, we analyzed induction of necroptosis in necroptotic competent MEFs using spliceosome inhibition. […] We also determined that MEFs ΔZBP1, WT, and Flag-ZBP1 cells treated with PlaB began dying within 24hours after treatment. With MEF Flag-ZBP1 cells showing only 20% survival after 24 hours (FIG. 16).

[3] = system: H82 SCLC cells; assay: Antigen (HLA-ABC) and PD-L1 expression, H82; format: cell-based; conditions: 48 hours of 0.5 nM PlaB
Description: (§4) FIG. 3A-3D: SF3B1 inhibition induces a potent IFN response and increases expression of IFN-regulated proteins. […] Mean±SEM, two-tailed unpaired Student's t test *p<0.05, **p<0.01, ***p<0.001, ****p<0.0001.
(§5) We also observed that SF3B1 inhibition triggers robust anti-tumor response and upregulates IFN-β, IFN-γ, and IFN-responsive genes by real-time reverse-transcription quantitative polymerase chain reaction (rRT-qPCR) in H446 and H82 cells (FIGS. 3A and 3B). […] These observations indicate that spliceosome inhibition is useful as a targeted therapy for SCLCs.

[4] = system: H446 SCLC cells; assay: RIPK1 depletion rescue of PlaB cytotoxicity, H446; format: cell-based, human; conditions: 18 hours of PlaB, RIPK1 depleted H446
Procedure: FIG. 2A) SCLC cell lines (H446 and H82) and immortalized fibroblasts (FC1010 and HS68) cell survival curves after 72 hours of PlaB treatment. FIG. 2B) RIPK1 depletion rescues H82 and H446 cell survival after 18 hours of PlaB treatment. FIG. 2C) Western blot showing RIPK1 protein depletion. Mean±SEM, Welch's t test *p<0.05, **p<0.01.
Cancer deregulates splicing^31,32, and we hypothesized that hyper-proliferative SCLCs are dependent on splicing machineries for increased tumorigenicity^90.

[5] = system: H446 cells; assay: Immunofluorescence of A-RNA (J2) and Z-NA (Z22), H446; format: cell-based, human
Description: (§6) FIG. 4A-4C: SF3B1 perturbation increases dsRNA and Z-nucleic acid levels in treated cells. […] (FIG. 4B) Quantification of A-RNA and Z-Nucleic acids. (FIG. 4C) Western blot showing induction of cleaved-PARP, pH2AX, and ZBP1, and the reduction of RIPK1 protein levels. Plots of signal intensity are mean±SEM, two-tailed unpaired Student's t test **p<0.01, ****p<0.0001.
Our observations led us to explore what caused the elevated IFN response. We used an immunofluorescence (IF) technique to determine if A-RNA was increased after PlaB treatment.

[6] = system: wild type RPPM631 cells; assay: Viability of wild type RPPM631 cells; format: cell-based, mouse; conditions: PlaB
Description: as §1

[7] = system: MEF ΔZα cells; assay: A-RNA and Z-NA accumulation in MEF ΔZα; format: cell-based, mouse; conditions: SF3B1 inhibition
[8] = system: SCLC cell lines; assay: Western blot of cleaved-PARP, pH2AX, ZBP1 and RIPK1 (FIG. 4C); format: cell-based; conditions: 48 hours of PlaB
Description: as §6

[9] = system: WT MEF cells; assay: Survival of PlaB treated MEF WT; format: cell-based, mouse
Procedure: FIG. 16: Analysis of the effect of spliceosome inhibition on necroptosis in WT MEF cells. EV refers to cells treated with an empty vector.
as §3

[10] = system: H446 SCLC cells; assay: IFN response by rRT-qPCR, H446; format: cell-based, human; conditions: dose-dependent
Description: as §4, §5

[11] = system: RPP631 cells in mice; assay: Combination therapy with PlaB and αPD-1 in mice, tumor size; format: in vivo; conditions: PlaB intra-tumorally and αPD-1 intra-peritoneally, days 14, 17, 20, 22; vs IgG or anti-PD1 only; 24 days
Procedure: FIG. 17: Analysis of combination therapy in mouse model using PlaB and αPD-1.
This combination therapy was tested in RPP631 cells in mice. At day 0, the mice were injected with 8×10^6 RPP631 cells. At days 14, 17, 20, and 22, the mice were injected with PlaB or a vehicle intra-tumorally and IgG or αPD-1 intra-peritoneally. The tumors were then measured over 24 days. (FIG. 17).

[12] = system: H446 SCLC cells; assay: Antigen (HLA-ABC) and PD-L1 expression, H446; format: cell-based, human; conditions: 48 hours of 0.5 nM PlaB
Description: as §4, §5

[13] = system: pTBK1 protein; assay: Western blot of pTBK1; format: cell-based
Description: FIG. 7: Western Blot analysis showing pTBK1 protein depletion.
Based on the publications and our findings, TNF sensing can at least partially rescue spliceosome perturbation mediated cell death.

[14] = system: RPPM631 cells; assay: A-RNA and Z-NA accumulation in RPPM631 cells; format: cell-based, mouse; conditions: 25 nM PLAB
Procedure: Additionally, SF3B1 inhibition was directly compared to SF3B1 knockout in the mouse SCLC cell line RPPM631. RPPM631 cells were treated with 25 nM PLAB and analyzed for their accumulation of Z-NA and A-RNA. […] (FIG. 12) Next, SF3B1-KO RPPM631 cells were generated and analyzed using immunc-fluorescence technique.

[15] = system: H446 cells; assay: MAVS knock out rescue of PlaB-mediated cell death, H446; format: cell-based, human; conditions: MAVS KO H446; data not shown
Description: (§7) Currently, ZBP1 and ADAR1 are the only two known proteins harbor Zα and interact with Z-NAs^104-109.

[16] = system: MEF RA cells; assay: pMLKL western blot / necroptosis, MEF RHIM-A mutant (RA); format: cell-based, mouse; conditions: 2.5 nM PlaB, 18 hours
Procedure: as §2, §3

[17] = system: H82 cells; assay: MAVS knock out rescue of PlaB-mediated cell death, H82; format: cell-based; conditions: MAVS KO H82; data not shown
Description: as §7

Structure (SMILES): CCC(O)C(C)C1OC1CC(C)C=CC=C(C)C1OC(=O)CC(O)CCC(C)(O)C(OC(C)=O)C=CC1C (stereo not shown) [PlaB, Pladienolide B]
- viability [1]: only a minor decrease in viability
- pMLKL (necroptosis) ([2]; MEF ΔZα): not triggered
- PlaB-mediated necroptosis ([2]; MEF ΔZα mutant): avoid PlaB-mediated necroptosis
- PD-L1 expression [3]: effectively upregulates
- antigen expression [3]: effectively upregulates
- cell survival upon RIPK1 depletion [4]: rescues
- A-RNA level ([5]; 6 hours, mouse J2 antibody, H446): robust induction
- Z-NA level ([5]; 6 hours, rabbit Z22 antibody, H446): significant increase
- accumulation of A-RNA ([5]; low dose, J2 antibody): induces accumulation
- accumulation of Z-Nucleic acids ([5]; low dose, Z22 antibody): induces accumulation
- viability [6]: significant decrease in viability
- A-RNA and Z-NA accumulation [7]: accumulation
- RIPK1 protein level [8]: dropped considerably
- ZBP1 protein [8]: increased; also recorded: slight increase
- cleaved-PARP protein [8]: increased
- pH2AX protein [8]: increased
- time after treatment at which cells began dying [9]: ≤ 24 h
- IFN response [10]: induces potent IFN response
- tumor size [11]: significantly reduced tumor size
- PD-L1 expression [12]: effectively upregulates
- antigen expression [12]: effectively upregulates
- pTBK1 protein [13]: dramatic reduction
- A-RNA accumulation [14]: increase
- Z-NA accumulation [14]: increase
- rescue of PlaB-mediated cell death by MAVS knock out [15]: only minimally rescue
- pMLKL (necroptosis) ([16]; MEF RA): not triggered
- PlaB-mediated necroptosis ([16]; MEF RHIM-A mutant): avoid PlaB-mediated necroptosis
- rescue of PlaB-mediated cell death by MAVS knock out [17]: only minimally rescue
